Measured values from ChEMBL document CHEMBL4483862, “Open-source discovery of chemical leads for next-generation chemoprotective antimalarials” (2018).

System: Plasmodium berghei
Experiment: Luciferase/luciferin-expressing antifolate-resistant parasites were used to infect a culture of HepG2 cells that were pre-incubated with compounds. Infected hepatocytes emit light due to the luciferase reaction. Assay results are presented as the percent inhibition of light emission compared to control. […]
Format: functional
Conditions: sporozoite; for IC90: read-out: LUCIFERASE INFECTION ASSAY - IC90

SMILES | IC90 [µM] | other results
Clc1ccccc1/C=C/c1nc(-c2ccccn2)no1 | > 11.6 | IC50 (FFLUC_HILL_SLOPE 3.15, FFLUC_R_SQUARED 0.695, PBLUC_HILL_SLOPE 0.408, PBLUC_R_SQUARED 0.784, read-out: LUCIFERASE INFECTION ASSAY - IC50): 0.446 µM
Cc1cc(C)c(C(=O)CSc2cc(C)c3cccc(C)c3n2)c(C)c1 | > 10 | IC50 (FFLUC_HILL_SLOPE 3.04, FFLUC_R_SQUARED 0.417, HEPG2TOX_HILL_SLOPE 2.16, HEPG2TOX_R_SQUARED 0.191, read-out: LUCIFERASE INFECTION ASSAY - IC50): > 10 µM
O=C(Nc1ccc(-n2cnc3ccccc32)nc1)c1ccc(S(=O)(=O)C(F)F)cc1 | > 10 | IC50 (FFLUC_HILL_SLOPE 3, FFLUC_R_SQUARED 0.28, HEPG2TOX_HILL_SLOPE 9.7, HEPG2TOX_R_SQUARED 0.823, PBLUC_HILL_SLOPE 15.6, 20.0, PBLUC_R_SQUARED 0.113, 0.608, read-out: LUCIFERASE INFECTION ASSAY - IC50): 9.13 µM
O=C(OCCSc1ccc([N+](=O)[O-])c2nonc12)c1cccc(C(F)(F)F)c1 | > 7.98 | IC50 (FFLUC_HILL_SLOPE 3.07, FFLUC_R_SQUARED 0.747, HEPG2TOX_HILL_SLOPE 10.3, HEPG2TOX_R_SQUARED 0.666, PBLUC_HILL_SLOPE 2.08, PBLUC_R_SQUARED 0.429, read-out: LUCIFERASE INFECTION ASSAY - IC50): 3.94 µM
CN(C)c1ccc(C(c2ccc(N(C)C)cc2)c2ccc(N(C)C)c(C#N)c2F)cc1 | > 7.92 | IC50 (FFLUC_HILL_SLOPE 2.97, FFLUC_R_SQUARED 0.397, HEPG2TOX_HILL_SLOPE 0.327, HEPG2TOX_R_SQUARED 0.744, PBLUC_HILL_SLOPE 0.914, PBLUC_R_SQUARED 0.465, read-out: LUCIFERASE INFECTION ASSAY - IC50): 6.07 µM
COc1ccc(-c2csc(NC(=O)c3ccc(Cl)c(S(=O)(=O)N4CCc5ccccc54)c3)n2)cc1OC | > 10 | IC50 (FFLUC_HILL_SLOPE 2.97, FFLUC_R_SQUARED 0.574, read-out: LUCIFERASE INFECTION ASSAY - IC50): > 10 µM
O=C(Nc1nc(-c2cccs2)cs1)c1cc(-c2ccccc2)nn1-c1ccccc1 | > 10 | IC50 (FFLUC_HILL_SLOPE 3.07, FFLUC_R_SQUARED 0.622, PBLUC_HILL_SLOPE 1.11, PBLUC_R_SQUARED 0.202, read-out: LUCIFERASE INFECTION ASSAY - IC50): > 10 µM
O=S(=O)(c1ccc(Cl)c(N=C2NN=C(c3c[nH]c4ccccc34)CS2)c1)N1CCOCC1 | > 10 | IC50 (FFLUC_HILL_SLOPE 3.06, FFLUC_R_SQUARED 0.687, HEPG2TOX_HILL_SLOPE 3.66, HEPG2TOX_R_SQUARED 0.952, PBLUC_HILL_SLOPE 1.64, PBLUC_R_SQUARED 0.734, read-out: LUCIFERASE INFECTION ASSAY - IC50): 3.83 µM
CC(C(=O)NCC1CCCCC1)N1CCN(c2ccc(F)cc2)CC1 (stereo not given) | > 10 | IC50 (FFLUC_HILL_SLOPE 3.15, FFLUC_R_SQUARED 0.597, read-out: LUCIFERASE INFECTION ASSAY - IC50): > 10 µM
CC(C)(C)c1ccc(OC(=O)Nc2ccc(Cl)c(Cl)c2)c(C(C)(C)C)c1 | > 8.37 | IC50 (FFLUC_HILL_SLOPE 3, FFLUC_R_SQUARED 0.639, PBLUC_HILL_SLOPE 0.845, PBLUC_R_SQUARED 0.14, read-out: LUCIFERASE INFECTION ASSAY - IC50): > 8.37 µM
N#C/C(=C\c1ccc([N+](=O)[O-])s1)C(N)=S | > 13.8 | IC50 (FFLUC_HILL_SLOPE 3.11, FFLUC_R_SQUARED 0.767, read-out: LUCIFERASE INFECTION ASSAY - IC50): > 13.8 µM
O=[N+]([O-])c1cc(Cl)cc(/C=N/Nc2cc(C(F)(F)F)ccc2Cl)c1O | > 10 | IC50 (FFLUC_HILL_SLOPE 3.01, FFLUC_R_SQUARED 0.379, HEPG2TOX_HILL_SLOPE 2.46, HEPG2TOX_R_SQUARED 0.824, read-out: LUCIFERASE INFECTION ASSAY - IC50): > 10 µM
Cc1cc2c(cc1C)CSC(c1ccccc1OC(=O)c1cccc3ccccc13)SC2 | > 10 | IC50 (FFLUC_HILL_SLOPE 3.12, FFLUC_R_SQUARED 0.597, read-out: LUCIFERASE INFECTION ASSAY - IC50): > 10 µM
Cc1nn(-c2ccccc2)c2c1C(c1cccnc1)C(c1nc3ccccc3s1)C(c1ccccc1)=N2 (stereo not given) | > 10 | IC50 (FFLUC_HILL_SLOPE 3.11, FFLUC_R_SQUARED 0.548, read-out: LUCIFERASE INFECTION ASSAY - IC50): > 10 µM
Cc1cc(C(=O)C(C)Sc2ncnc3sc(-c4ccccc4)cc23)c(C)n1-c1ccc(OC(F)F)cc1 (stereo not given) | > 10 | IC50 (FFLUC_HILL_SLOPE 3.01, FFLUC_R_SQUARED 0.199, HEPG2TOX_HILL_SLOPE 3.15, HEPG2TOX_R_SQUARED 0.925, PBLUC_HILL_SLOPE 3.1, PBLUC_R_SQUARED 0.165, read-out: LUCIFERASE INFECTION ASSAY - IC50): 7.04 µM
CCOC(=O)c1cc(NC(=O)c2ccc(Cl)c(S(=O)(=O)N(Cc3ccccc3)c3ccccc3OC)c2)cc(C(=O)OCC)c1 | > 10 | IC50 (FFLUC_HILL_SLOPE 3.02, FFLUC_R_SQUARED 0.375, read-out: LUCIFERASE INFECTION ASSAY - IC50): > 10 µM
O=c1[nH]nc(Sc2ncc([N+](=O)[O-])s2)n1Cc1ccccc1 | > 9.84 | IC50 (FFLUC_HILL_SLOPE 3.03, FFLUC_R_SQUARED 0.344, HEPG2TOX_HILL_SLOPE 12.4, HEPG2TOX_R_SQUARED 0.571, PBLUC_HILL_SLOPE 13, PBLUC_R_SQUARED 0.0851, read-out: LUCIFERASE INFECTION ASSAY - IC50): 8.7 µM
Cc1ccc2nc(NC(=O)c3cccc(F)c3)c(C(=O)NCC(C)C)n2c1 | 3.14 | IC50 (FFLUC_HILL_SLOPE 3.07, FFLUC_R_SQUARED 0.833, HEPG2TOX_HILL_SLOPE 1.43, HEPG2TOX_R_SQUARED 0.94, PBLUC_HILL_SLOPE 3.56, PBLUC_R_SQUARED 0.485, read-out: LUCIFERASE INFECTION ASSAY - IC50): 1.69 µM
c1ccc(-c2cc3c(Oc4cccc5ccccc45)ncnc3s2)cc1 | > 10 | IC50 (FFLUC_HILL_SLOPE 2.93, FFLUC_R_SQUARED 0.065, PBLUC_HILL_SLOPE 1.19, PBLUC_R_SQUARED 0.417, read-out: LUCIFERASE INFECTION ASSAY - IC50): 2.85 µM
NNc1nc(C(F)(F)F)nc2c1cnn2Cc1ccccc1 | > 10 | IC50 (FFLUC_HILL_SLOPE 3.09, FFLUC_R_SQUARED 0.0505, read-out: LUCIFERASE INFECTION ASSAY - IC50): > 10 µM
CC(=O)c1ccc(NC(=O)N2[C@@H]3CC[C@@H](C3)[C@H]2c2nc3cccc(OCc4ccccc4)c3[nH]2)cc1 | > 10 | IC50 (FFLUC_HILL_SLOPE 3.04, FFLUC_R_SQUARED 0.885, read-out: LUCIFERASE INFECTION ASSAY - IC50): > 10 µM
FC(F)(F)c1nnc2ccc(NC(c3ccccc3)c3cc4ccccc4o3)nn12 (stereo not given) | 4.2 | IC50 (FFLUC_HILL_SLOPE 3.11, FFLUC_R_SQUARED 0.599, PBLUC_HILL_SLOPE 15.6, PBLUC_R_SQUARED 0.326, read-out: LUCIFERASE INFECTION ASSAY - IC50): 3.65 µM
Cc1ccc(N2C(=O)c3ccccc3C(C=NNc3ccc(S(=O)(=O)N4CCCC4)cc3[N+](=O)[O-])C2=O)cc1 (stereo not given) | > 10 | IC50 (FFLUC_HILL_SLOPE 3.06, FFLUC_R_SQUARED 0.613, HEPG2TOX_HILL_SLOPE 13, HEPG2TOX_R_SQUARED 0.977, read-out: LUCIFERASE INFECTION ASSAY - IC50): > 10 µM
CC(C)c1cc(N(c2ccc(Br)cc2)S(=O)(=O)c2ccc(Cl)cc2)cc(C(C)C)c1O | > 10 | IC50 (FFLUC_HILL_SLOPE 3.1, FFLUC_R_SQUARED 0.697, PBLUC_HILL_SLOPE 9.64, PBLUC_R_SQUARED 0.214, read-out: LUCIFERASE INFECTION ASSAY - IC50): 8.66 µM
CC(=O)Nc1ccc(Sc2ccnc3cc(Cl)ccc23)cc1 | 3.98 | IC50 (FFLUC_HILL_SLOPE 2.92, FFLUC_R_SQUARED 0.4, PBLUC_HILL_SLOPE 11.7, PBLUC_R_SQUARED 0.574, read-out: LUCIFERASE INFECTION ASSAY - IC50): 3.29 µM
CCc1cccc2c(C(=O)COC(=O)C3CCN(S(=O)(=O)c4ccc(Cl)c(C(F)(F)F)c4)CC3)c[nH]c12 | > 10 | IC50 (FFLUC_HILL_SLOPE 3.04, FFLUC_R_SQUARED 0.433, read-out: LUCIFERASE INFECTION ASSAY - IC50): > 10 µM
CN(C)c1c(/C=C2\C(=O)Nc3ccccc32)cc(/C=C2/C(=O)Nc3ccccc32)c(N(C)C)c1C#N | 4.13 | IC50 (FFLUC_HILL_SLOPE 3.06, FFLUC_R_SQUARED 0.454, HEPG2TOX_HILL_SLOPE 1.28, HEPG2TOX_R_SQUARED 0.858, PBLUC_HILL_SLOPE 2.4, PBLUC_R_SQUARED 0.768, read-out: LUCIFERASE INFECTION ASSAY - IC50): 1.65 µM
Cc1ccc(-n2c(SCC(=O)N3c4ccc(S(N)(=O)=O)cc4CC3C)nc3ccccc32)cc1 (stereo not given) | > 10 | IC50 (FFLUC_HILL_SLOPE 2.97, FFLUC_R_SQUARED 0.377, PBLUC_HILL_SLOPE 1.55, PBLUC_R_SQUARED 0.53, read-out: LUCIFERASE INFECTION ASSAY - IC50): 5.31 µM
Cc1cccc(C)c1-n1c(=C(C#N)C#N)s/c(=C/c2ccc(Cl)c([N+](=O)[O-])c2)c1=O | 9.8 | IC50 (FFLUC_HILL_SLOPE 2.98, FFLUC_R_SQUARED 0.465, HEPG2TOX_HILL_SLOPE 7.11, HEPG2TOX_R_SQUARED 0.701, PBLUC_HILL_SLOPE 34, PBLUC_R_SQUARED 0.394, read-out: LUCIFERASE INFECTION ASSAY - IC50): 9.19 µM
COc1ccc([N+](=O)[O-])cc1C(=O)Nc1nc2c(s1)CCCCC2 | 0.411 | IC50 (FFLUC_HILL_SLOPE 3.14, FFLUC_R_SQUARED 0.813, PBLUC_HILL_SLOPE 0.763, PBLUC_R_SQUARED 0.879, read-out: LUCIFERASE INFECTION ASSAY - IC50): 0.0231 µM
